Consider 8 compounds from US20090065745A1, “ANTI-DEGRADATION AGENT” (priority 2005, published 2009).

Data set [1] is described as follows: Measurement of dynamic hydration number (relaxation time T1). The settings on record: at 25° C., in water. It counts as physicochemical. The source says:
First, the concept of the “dynamic hydration number” used in the present invention is explained. It is considered that the initial reaction of deterioration is caused at an “interface”, i.e., any of interfaces between gas and liquid, between liquid and solid and between liquid and liquid. In the case of almost all of foods, it is considered that the initial reaction of deterioration thereof is caused at an interface between oil and water. Here, if consideration is mainly made on the case where a configuration of the food is an aqueous system, water is generally classified into two types, i.e., liberated water and combined water. It is considered that among these waters, the liberated water frequently constitutes a factor relating to the initial reaction of deterioration.
The control of the liberated water can be realized by constraining a free motion of water molecules. The “dynamic hydration number” of the compound is an index showing a degree of constraint of free motion of water when the compound is dissolved in water. […] The dynamic hydration number of the compound may be readily measured, for example, by the following method.
25.0 mg of p-hydroxybenzoic acid was dissolved in pure water, and pure water was further added the resultant solution to obtain 50 mL of a solution (blank). The blank was added to samples used in amounts of 1.008 g and 1.512 g, respectively, to prepare sample solutions 1 and 2 having total weights of 4.013 g and 3.001 g, respectively. Using a spectrophotometer “Inova 500” manufactured by Varian Corp., the relaxation time (T1) of the respective sample solutions was measured at 25° C. to determine a dynamic hydration number thereof.

Data set [2] can be described thus: Solubility in hexane (oil solubility). The settings on record: at 30° C. It counts as physicochemical. The source says:
However, the solubility in triglyceride of the compound varies depending upon constitutional fatty acids of the triglyceride. Therefore, in the present invention, the oil insolubility and oil solubility of the compound is defined by a solubility thereof in hexane.

For `O=C(CO)[C@@H](O)[C@H](O)[C@H](O)CO` [Fructose], in data set [1], the “Dynamic hydration number (nDHN)” value is listed as 16.5.

In the case of `NCCCC[C@H](N)C(=O)O` [Lysine], in data set [1], the “Dynamic hydration number (nDHN)” value is recorded as 3.0.

Regarding `OC[C@H]1O[C@@](CO)(O[C@H]2O[C@H](CO)[C@@H](O)[C@H](O)[C@H]2O)[C@@H](O)[C@@H]1O` [Sucrose], in data set [1], the “Dynamic hydration number (nDHN)” value is listed as 15.0.

For the compound `CC(C)[C@H](N)C(=O)O` [Valine], the “Dynamic hydration number (nDHN)” value in data set [1] is recorded as 21.0.

Consider `O=C[C@H](O)[C@@H](O)[C@H](O)CO` [Xylose], for which, in data set [1], the “Dynamic hydration number (nDHN)” value was 15.5.

In the case of Maltotriol, in data set [1], the “Dynamic hydration number (nDHN)” value is 211.

Regarding Maltotriose, in data set [1], the “Dynamic hydration number (nDHN)” value was 204.

On to tocopherol [Vitamin E (tocopherol)], for which, in data set [2], the “Oil solubility class (solubility in hexane)” value is “Oil-soluble (oil-soluble antioxidant having a solubility in 1 L of hexane of not less than 50 g as measured at 30° C.)” and the Solubility in hexane is above 500 mg/mL.
